The test relates to HHV-6 strain 7.29. As to the kind of experiment: Evaluation of PCV against HHV-6 in human cord blood cells (% infected cells by immunofluorescence). Type of test: cell-based, human herpesvirus 6. The procedure: An assay method involving the inhibition of a cytopathic effect in human cord blood cells is conducted at a dose range of 0.01 μM-100 μM. The general procedure is as described in Chapter 23 of ‘Human Herpesvirus; Epidemiology, Molecular Biology and Clinical Pathology—Conference Proceedings, Ablashi D. V. (Ed).
^aDilutions of the compounds were added 1 hr after viral inoculation of human cord blood. The % infected cells was measured by anti-complement immunofluorescence (ACIF). All numbers are averages of results of cord blood from 3 donors and triplicate readings were performed on each sample. Each reading represents actual counting of 3 fields.
Human mononuclear cells were isolated from umbilical cord blood and inoculated in triplicate with the test virus. One hour later, duplicate dilutions of the compound were added, resulting in 0, 5, 10, 50, or 100 μM final concentrations. After 3-6 days, cellls were removed and tested for the presence of virus by indirect immunofluorescence (IFA) using type specific monoclonal antibodies. Three fields of 100 cells each were read from each sample.

For `Nc1nc2c(ncn2CCC(CO)CO)c(=O)[nH]1` [PCV, penciclovir], the inhibition at 5 µM (Human betaherpesvirus 6, 144 h, PCV 5 μM, Day 6, read-out: % Inhib Day 6) is -5%. Besides, where the note is “Human betaherpesvirus 6, 144 h, PCV 10 μM, Day 6, read-out: % Inhib Day 6”, the inhibition at 10 µM is -7%. In addition, the inhibition at 50 µM (Human betaherpesvirus 6, 144 h, PCV 50 μM, Day 6, read-out: % Inhib Day 6) stood at 12%. Further, the inhibition at 100 µM (Human betaherpesvirus 6, 144 h, PCV 100 μM, Day 6, read-out: % Inhib Day 6) came out at 29%. The “% Inf Day 4” value by setting is: (PCV 5 μM, Day 4, compound added 1 hr after viral inoculation) 19%; (PCV 10 μM, Day 4) 20%. In addition, the “% Inf Day 6” value reads like this: (PCV 5 μM) 42%; (PCV 10 μM) 43%; (PCV 50 μM) 35%; (PCV 100 μM) 38%.

For the origin of these results see patent publication US6683084B1, “Use of 2-amino purine derivatives for the treatment and prophylaxis of human herpes virus 6 infections” (Novartis International Pharmaceutical Ltd., priority 1993, dated 2004).
